For orientation: melting point means the temperature, or range, at which the solid turns liquid.

The source of these data is US10485235B2, “Aryloxypyrimidinyl ethers as herbicides” (FMC Corporation, priority 2015, dated 2019).

Data set [1] relates to ryegrass, Italian (Italian ryegrass, Lolium multiflorum). Nature of the data set: Test A postemergence, Italian ryegrass. The settings on record: Lolium multiflorum, post-emergence, 240 h, postemergence, 0 to 100 scale, 0 is no effect, 100 is complete control, approximately 10 days, read-out: Plant response rating, Ryegrass, Italian; for pest or weed control at 31 g/ha: 31 g ai/ha; for pest or weed control at 125 g/ha: 125 g ai/ha; for pest or weed control at 500 g/ha: 500 g ai/ha. It counts as in vivo. In outline: (§1)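 Visual injury rating versus untreated controls on a 0 to 100 scale (0 = no effect, 100 = complete control), taken about 10 days after treatment in the greenhouse. Preemergence: directed soil spray over seeded loam–sand. Postemergence: spray on one- to two-leaf plants, 2 to 10 cm tall.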

Data set [2] relates to foxtail, giant (giant foxtail, Setaria faberii). As to the kind of experiment: Test A preemergence, giant foxtail. It counts as in vivo. The settings on record: Setaria faberi, pre-emergence, 240 h, Preemergence, 0 to 100 scale (0 no effect, 100 complete control), read-out: Plant response rating, Foxtail, Giant; for pest or weed control at 31 g/ha: 31 g ai/ha; for pest or weed control at 125 g/ha: 125 g ai/ha; for pest or weed control at 500 g/ha: 500 g ai/ha. The gist of the method: as §1

Data set [3] has as its system barnyardgrass (Echinochloa crus-galli). As to the kind of experiment: Test A postemergence, barnyardgrass. The settings on record: Echinochloa crus-galli, post-emergence, 240 h, postemergence, 0 to 100 scale, 0 is no effect, 100 is complete control, approximately 10 days, read-out: Plant response rating, Barnyardgrass; for pest or weed control at 31 g/ha: 31 g ai/ha; for pest or weed control at 125 g/ha: 125 g ai/ha; for pest or weed control at 500 g/ha: 500 g ai/ha. It counts as in vivo. In outline: as §1

For a further data set, the system named is corn (Zea mays). Nature of the data set: Test A postemergence, corn. As to conditions: Zea mays, post-emergence, 240 h, postemergence, 0 to 100 scale, 0 is no effect, 100 is complete control, approximately 10 days; for Corn plant response rating (crop injury, 0 = no effect, 100 = complete kill) at 31 g/ha: 31 g ai/ha; for Corn plant response rating (crop injury, 0 = no effect, 100 = complete kill) at 125 g/ha: 125 g ai/ha; for Corn plant response rating (crop injury, 0 = no effect, 100 = complete kill) at 500 g/ha: 500 g ai/ha. It counts as in vivo. In outline:
as §1

Data set [4] has as its system ragweed (common ragweed, Ambrosia elatior). Nature of the data set: Test A preemergence, ragweed. It counts as in vivo. As to conditions: Ambrosia artemisiifolia, pre-emergence, 240 h, Preemergence, 0 to 100 scale (0 no effect, 100 complete control), read-out: Plant response rating, Ragweed; for pest or weed control at 31 g/ha: 31 g ai/ha; for pest or weed control at 125 g/ha: 125 g ai/ha; for pest or weed control at 500 g/ha: 500 g ai/ha. The gist of the method: as §1

`N#Cc1cccc(Oc2ncc(Cl)cn2)c1OCC(F)(F)F` [Compound 1]: the pest or weed control at 31 g/ha amounted to 0% in data set [1], 60% in data set [2], 0% in data set [3] and 0% in data set [4]. Further, the pest or weed control at 125 g/ha in data set [1] was 0%; in data set [2], 100%; in data set [3] it was 30%; in data set [4] it was 100%. In the data set on corn (Zea mays), this compound yielded a Corn plant response rating (crop injury, 0 = no effect, 100 = complete kill) at 31 g/ha of 10%. Further, the Corn plant response rating (crop injury, 0 = no effect, 100 = complete kill) at 125 g/ha in the data set with corn (Zea mays) was 10%.
`N#Cc1cccc(Oc2ncc(F)cn2)c1OCCCC(F)(F)F` [Compound 4, 3-[(5-fluoro-2-pyrimidinyl)oxy]-2-(4,4,4-trifluorobutoxy)benzonitrile] displayed a melting point of 70 to 74 °C. In data set [1], the pest or weed control at 31 g/ha amounted to 0% and the pest or weed control at 125 g/ha came out at 40%. Also, in data set [2], the pest or weed control at 31 g/ha stood at 100% and the pest or weed control at 125 g/ha was 100%. Further, in data set [3], the pest or weed control at 31 g/ha was 20% and the pest or weed control at 125 g/ha turned out to be 90%. In the data set on corn (Zea mays), this compound registered a Corn plant response rating (crop injury, 0 = no effect, 100 = complete kill) at 31 g/ha of 40% and a Corn plant response rating (crop injury, 0 = no effect, 100 = complete kill) at 125 g/ha of 90%. In data set [4], the pest or weed control at 31 g/ha was 10% and the pest or weed control at 125 g/ha is 30%.
In the case of `N#Cc1cccc(Oc2ncc(Cl)cn2)c1OCCCC(F)(F)F` [Compound 5, 3-[(5-chloro-2-pyrimidinyl)oxy]-2-(4,4,4-trifluorobutoxy)benzonitrile], the melting point lay within 51 to 54 °C. Also, in data set [1], the pest or weed control at 31 g/ha is 20% and the pest or weed control at 125 g/ha turned out to be 40%. Besides, in data set [2], the pest or weed control at 31 g/ha came out at 100% and the pest or weed control at 125 g/ha came out at 100%. Also, in data set [3], the pest or weed control at 31 g/ha was 70% and the pest or weed control at 125 g/ha was 100%. In the data set with corn (Zea mays), this compound returned a Corn plant response rating (crop injury, 0 = no effect, 100 = complete kill) at 31 g/ha of 50% and a Corn plant response rating (crop injury, 0 = no effect, 100 = complete kill) at 125 g/ha of 80%. Further, in data set [4], the pest or weed control at 31 g/ha was 10% and the pest or weed control at 125 g/ha was 10%.
For `N#Cc1cccc(Oc2ncc(Cl)cn2)c1OCC(F)(F)C(F)(F)F` [Compound 10, 3-[(5-chloro-2-pyrimidinyl)oxy]-2-(2,2,3,3,3-pentafluoropropoxy)benzonitrile], the pest or weed control at 125 g/ha was found to be 30% in data set [1], 100% in data set [2], 90% in data set [3] and 20% in data set [4]. Also, the pest or weed control at 500 g/ha in data set [1] was determined as 90%; in data set [2] it was 100%; in data set [3], 100%; in data set [4], 10%. This compound registered a Corn plant response rating (crop injury, 0 = no effect, 100 = complete kill) at 125 g/ha in the data set on corn (Zea mays) of 70%. Moreover, the Corn plant response rating (crop injury, 0 = no effect, 100 = complete kill) at 500 g/ha in the data set with corn (Zea mays) is 100%.
Turning to `CCCCOc1c(Br)cccc1Oc1ncc(Cl)cn1` [Compound 13, 2-[3-bromo-2-(butoxy)phenoxy]-5-chloropyrimidine], the pest or weed control at 125 g/ha amounted to 20% in data set [1], 100% in data set [2], 90% in data set [3] and 0% in data set [4]. The pest or weed control at 500 g/ha in data set [1] turned out to be 90%; in data set [2] it was 100%; in data set [3] it was 100%; in data set [4], 10%. The same compound gave a Corn plant response rating (crop injury, 0 = no effect, 100 = complete kill) at 125 g/ha in the data set with corn (Zea mays) of 30%. In the data set on corn (Zea mays), the Corn plant response rating (crop injury, 0 = no effect, 100 = complete kill) at 500 g/ha was determined as 90%.
Take `FC(F)C(F)(F)COc1c(Br)cccc1Oc1ncc(Cl)cn1` [Compound 18, 2-[3-bromo-2-(2,2,3,3-tetrafluoropropoxy)phenoxy]-5-chloropyrimidine]: the pest or weed control at 125 g/ha in data set [1] is 0%; in data set [2], 100%; in data set [3], 30%; in data set [4] it was 0%. For the same compound, the pest or weed control at 500 g/ha in data set [1] was found to be 60%; in data set [2], 100%; in data set [3], 100%; in data set [4] it was 10%. This compound also came in with a Corn plant response rating (crop injury, 0 = no effect, 100 = complete kill) at 125 g/ha with corn (Zea mays) of 20%. In the data set with corn (Zea mays), this compound gave a Corn plant response rating (crop injury, 0 = no effect, 100 = complete kill) at 500 g/ha of 30%.
For the compound `N#Cc1cccc(Oc2ncc(Cl)cn2)c1OCCC(F)(F)F` [Compound 23, 3-[(5-chloro-2-pyrimidinyl)oxy]-2-(3,3,3-trifluoropropoxy)benzonitrile], the pest or weed control at 31 g/ha in data set [1] came to 20%; in data set [2], 90%; in data set [3], 50%; in data set [4], 0%. The pest or weed control at 125 g/ha in data set [1] came out at 40%; in data set [2] it was 100%; in data set [3] it was 90%; in data set [4] it was 90%. In the data set on corn (Zea mays), this compound came in with a Corn plant response rating (crop injury, 0 = no effect, 100 = complete kill) at 31 g/ha of 10%. Further, in the data set with corn (Zea mays), the Corn plant response rating (crop injury, 0 = no effect, 100 = complete kill) at 125 g/ha amounted to 90%.
On to `Fc1cccc(Oc2ncc(Cl)cn2)c1OCC(F)(F)F` [Compound 28], for which the pest or weed control at 125 g/ha in data set [1], in data set [2], in data set [3] and in data set [4] was 0% throughout. In addition, the pest or weed control at 500 g/ha in data set [1] was determined as 0%; in data set [2] it was 70%; in data set [3] it was 20%; in data set [4] it was 0%. For the same compound, the Corn plant response rating (crop injury, 0 = no effect, 100 = complete kill) at 125 g/ha in the data set on corn (Zea mays) came out at 0%. Moreover, in the data set on corn (Zea mays), the Corn plant response rating (crop injury, 0 = no effect, 100 = complete kill) at 500 g/ha turned out to be 10%.
Take `CCCCOc1c(C#N)cccc1Oc1ncc(Cl)cn1` [Compound 35, 2-butoxy-3-[(5-chloro-2-pyrimidinyl)oxy]benzonitrile]: the pest or weed control at 125 g/ha in data set [1] was 40%; in data set [2], 100%; in data set [3], 80%; in data set [4], 10%. In addition, the pest or weed control at 500 g/ha came to 80% in data set [1], 100% in data set [2], 100% in data set [3] and 30% in data set [4]. The Corn plant response rating (crop injury, 0 = no effect, 100 = complete kill) at 125 g/ha in the data set with corn (Zea mays) turned out to be 20%. In the data set with corn (Zea mays), this compound came in with a Corn plant response rating (crop injury, 0 = no effect, 100 = complete kill) at 500 g/ha of 70%.
As to `FC(F)(F)COc1c(Cl)cccc1Oc1ncc(Cl)cn1` [Compound 42], the pest or weed control at 31 g/ha in data set [1], in data set [2], in data set [3] and in data set [4] was 0% throughout. In addition, the pest or weed control at 125 g/ha in data set [1] is 0%; in data set [2], 10%; in data set [3], 10%; in data set [4], 0%. Further, the Corn plant response rating (crop injury, 0 = no effect, 100 = complete kill) at 31 g/ha with corn (Zea mays) was found to be 0%. In the data set with corn (Zea mays), this compound came in with a Corn plant response rating (crop injury, 0 = no effect, 100 = complete kill) at 125 g/ha of 10%.
Consider `Cc1cccc(Oc2ncc(Cl)cn2)c1OCC(F)(F)F` [Compound 63], for which the pest or weed control at 31 g/ha in data set [1], in data set [2], in data set [3] and in data set [4] was 0% in each case. In addition, the pest or weed control at 125 g/ha in data set [1], in data set [2], in data set [3] and in data set [4] was 0% each time. This compound showed a Corn plant response rating (crop injury, 0 = no effect, 100 = complete kill) at 31 g/ha in the data set with corn (Zea mays) of 0%. This compound also gave a Corn plant response rating (crop injury, 0 = no effect, 100 = complete kill) at 125 g/ha in the data set with corn (Zea mays) of 0%.
